Source: PMC6379670, “An ultra-high affinity ligand of HIV-1 TAR reveals the RNA structure recognized by P-TEFb” (Nucleic Acids Research, 2018)
Non-standard residues stand in square brackets, D forms with d. Residues, ends and D or L forms follow the SMILES beside them. hArg = N=C(N)NCCCC[C@H](N)C(=O)O; Orn = NCCC[C@H](N)C(=O)O; Dab = NCC[C@H](N)C(=O)O

Each compound was assayed against HIV-1 TAR RNA. Conditions: EMSA, 32P radiolabeled HIV-1 TAR RNA, [RNA]=75pM; Table 1; read-out: K D (HIV).
Type: binding
Procedure: Electro Mobility Shift Assays (EMSA) and 2-aminopurine fluorescence ([35]) were used to measure peptide binding. For EMSA, all RNAs were 5′-dephosphorylated ([25],[26]) and 5′-rephosphorylated using T4 Polynucleotide Kinase (PNK); shifts were performed and analyzed as previously described ([14]). The P-TEFb/Tat1:57/AFF4 binding assays were run as described ([11]), with protein samples generously donated by Drs Ursula Schulze-Gahmen and James Hurley, but binding buffers contained 250× fold excess yeast tRNA. JB181-bound samples were prepared with 3× excess labeled HIV-TAR prior to titration with the pre-formed P-TEFb/Tat1:57/AFF4 complex.
Fig. S1. a) HIV-1 TAR, BIV TAR and 7SK-SL4 RNAs have similar secondary structures, but the JB181 peptide discriminates between them. […]
tightly than BIV TAR (3.3 nM) or 7SK (>3 μM) RNAs. b) EMSA of representative JB-peptides with 32P radiolabeled HIV-1 TAR RNA ([RNA]=75pM). The peptide concentration increases from left to right, as indicated. The dissociation constant can be estimated by the peptide concentration where there is an approximate 1:1 ratio (as established by visual inspection) between free RNA and complex, since the RNA concentration is much lower than the KD.
(1 picture or pasted object on this page, not shown here)
Work on `CC[C@H](C)[C@@H]1NC(=O)[C@H](CCCNC(=N)N)NC(=O)[C@H](CCCNC(=N)N)NC(=O)CNC(=O)[C@H](CCCCN)NC(=O)[C@H](CCCNC(=N)N)NC(=O)[C@H]([C@@H](C)O)NC(=O)[C@H](CCCNC(=N)N)NC(=O)[C@H](C(C)C)NC(=O)[C@H](CCCN)NC(=O)[C@@H]2CCCN2C(=O)[C@H]2CCCN2C(=O)[C@H]([C@@H](C)CC)NC(=O)[C@H](CCCNC(=N)N)NC1=O` [JB58] (cyclo([Orn]VRTRKGRRIRI[dP]P)) yielded a Kd of 3 ± 0.3 nM.
`CC[C@H](C)[C@@H]1NC(=O)[C@H](CCCNC(=N)N)NC(=O)[C@H](CCCNC(=N)N)NC(=O)CNC(=O)[C@H](CCCCN)NC(=O)[C@H](CCCNC(=N)N)NC(=O)[C@H]([C@@H](C)O)NC(=O)[C@H](CCCNC(=N)N)NC(=O)[C@H](C(C)C)NC(=O)[C@H](CCN)NC(=O)[C@@H]2CCCN2C(=O)[C@H]2CCCN2C(=O)[C@H]([C@@H](C)CC)NC(=O)[C@H](CCCNC(=N)N)NC1=O` [JB59] (cyclo([Dab]VRTRKGRRIRI[dP]P)) showed a Kd of 1 ± 0.3 nM.
`CC[C@H](C)[C@@H]1NC(=O)[C@H](CCCNC(=N)N)NC(=O)[C@H](CCCNC(=N)N)NC(=O)CNC(=O)[C@H](CCCCN)NC(=O)[C@H](CCCNC(=N)N)NC(=O)[C@H]([C@@H](C)O)NC(=O)[C@H](CCCNC(=N)N)NC(=O)[C@H](C(C)C)NC(=O)[C@H](CCN)NC(=O)[C@@H]2CCCN2C(=O)[C@H]2CCCN2C(=O)[C@H](CC(C)C)NC(=O)[C@H](CCCNC(=N)N)NC1=O` [JB185] (cyclo([Dab]VRTRKGRRIRL[dP]P)) was tested, and the Kd was 0.5 ± 0.1 nM.

Same assay, conditions: EMSA; positional scanning library, Table S1; with tRNA; read-out: Kd (nM) w/tRNA
With `CC[C@H](C)[C@@H]1NC(=O)[C@H](CCCNC(=N)N)NC(=O)[C@H](CCCNC(=N)N)NC(=O)CNC(=O)[C@H](CCCCN)NC(=O)[C@H](CCCNC(=N)N)NC(=O)[C@H]([C@@H](C)O)NC(=O)[C@H](CCCNC(=N)N)NC(=O)[C@H](C(C)C)NC(=O)[C@H](CCC(N)=O)NC(=O)[C@@H]2CCCN2C(=O)[C@H]2CCCN2C(=O)[C@H]([C@@H](C)CC)NC(=O)[C@H](CCCNC(=N)N)NC1=O` [JB-61] (cyclo(QVRTRKGRRIRI[dP]P)) the Kd was greater than 1000 nM.
Work on `CC[C@H](C)[C@@H]1NC(=O)[C@H](CCCNC(=N)N)NC(=O)[C@H](CCCNC(=N)N)NC(=O)CNC(=O)[C@H](CCCCN)NC(=O)[C@H](CCCNC(=N)N)NC(=O)[C@H]([C@@H](C)O)NC(=O)[C@H](CCCNC(=N)N)NC(=O)[C@H](CC(=O)O)NC(=O)[C@H](CCCNC(=N)N)NC(=O)[C@@H]2CCCN2C(=O)[C@H]2CCCN2C(=O)[C@H]([C@@H](C)CC)NC(=O)[C@H](CCCNC(=N)N)NC1=O` [JB-64] (cyclo(RDRTRKGRRIRI[dP]P)) yielded a Kd greater than 1000 nM.
Compound `CC[C@H](C)[C@@H]1NC(=O)[C@H](CCCNC(=N)N)NC(=O)[C@H](CCCNC(=N)N)NC(=O)CNC(=O)[C@H](CCCCN)NC(=O)[C@H](CCC(N)=O)NC(=O)[C@H]([C@@H](C)O)NC(=O)[C@H](CCCNC(=N)N)NC(=O)[C@H](C(C)C)NC(=O)[C@H](CCCNC(=N)N)NC(=O)[C@@H]2CCCN2C(=O)[C@H]2CCCN2C(=O)[C@H]([C@@H](C)CC)NC(=O)[C@H](CCCNC(=N)N)NC1=O` [JB-67] (cyclo(RVRTQKGRRIRI[dP]P)) has a Kd greater than 1000 nM.
In the case of `CC[C@H](C)[C@@H]1NC(=O)[C@H](CCCNC(=N)N)NC(=O)[C@H](CCCNC(=N)N)NC(=O)CNC(=O)[C@H](CCCCN)NC(=O)[C@H](Cc2ccc(O)cc2)NC(=O)[C@H]([C@@H](C)O)NC(=O)[C@H](CCCNC(=N)N)NC(=O)[C@H](C(C)C)NC(=O)[C@H](CCCNC(=N)N)NC(=O)[C@@H]2CCCN2C(=O)[C@H]2CCCN2C(=O)[C@H]([C@@H](C)CC)NC(=O)[C@H](CCCNC(=N)N)NC1=O` [JB-68] (cyclo(RVRTYKGRRIRI[dP]P)), the Kd is reported as greater than 1000 nM.
For `CC[C@H](C)[C@@H]1NC(=O)[C@H](CCCNC(=N)N)NC(=O)[C@H](Cc2ccc(O)cc2)NC(=O)CNC(=O)[C@H](CCCCN)NC(=O)[C@H](CCCNC(=N)N)NC(=O)[C@H]([C@@H](C)O)NC(=O)[C@H](CCCNC(=N)N)NC(=O)[C@H](C(C)C)NC(=O)[C@H](CCCNC(=N)N)NC(=O)[C@@H]2CCCN2C(=O)[C@H]2CCCN2C(=O)[C@H]([C@@H](C)CC)NC(=O)[C@H](CCCNC(=N)N)NC1=O` [JB-69] (cyclo(RVRTRKGYRIRI[dP]P)), the Kd was greater than 1000 nM.
In the case of `CC[C@H](C)[C@@H]1NC(=O)[C@H](CCCNC(=N)N)NC(=O)[C@H](Cc2c[nH]c3ccccc23)NC(=O)CNC(=O)[C@H](CCCCN)NC(=O)[C@H](CCCNC(=N)N)NC(=O)[C@H]([C@@H](C)O)NC(=O)[C@H](CCCNC(=N)N)NC(=O)[C@H](C(C)C)NC(=O)[C@H](CCCNC(=N)N)NC(=O)[C@@H]2CCCN2C(=O)[C@H]2CCCN2C(=O)[C@H]([C@@H](C)CC)NC(=O)[C@H](CCCNC(=N)N)NC1=O` [JB-70] (cyclo(RVRTRKGWRIRI[dP]P)), the Kd is reported as greater than 1000 nM.
In the case of `CC[C@H](C)[C@@H]1NC(=O)[C@H](CCCCN)NC(=O)[C@H](CCCNC(=N)N)NC(=O)CNC(=O)[C@H](CCCCN)NC(=O)[C@H](CCCNC(=N)N)NC(=O)[C@H]([C@@H](C)O)NC(=O)[C@H](CCCNC(=N)N)NC(=O)[C@H](C(C)C)NC(=O)[C@H](CCCNC(=N)N)NC(=O)[C@@H]2CCCN2C(=O)[C@H]2CCCN2C(=O)[C@H]([C@@H](C)CC)NC(=O)[C@H](CCCNC(=N)N)NC1=O` [JB-71] (cyclo(RVRTRKGRKIRI[dP]P)), the Kd is reported as greater than 1000 nM.
Work on `CC[C@H](C)[C@@H]1NC(=O)[C@H](CCCNC(=N)N)NC(=O)[C@H](CCCNC(=N)N)NC(=O)CNC(=O)[C@H](CCCCN)NC(=O)[C@H](CCCNC(=N)N)NC(=O)[C@H]([C@@H](C)O)NC(=O)[C@@H](CCCNC(=N)N)NC(=O)[C@H](C(C)C)NC(=O)[C@H](CCCNC(=N)N)NC(=O)[C@@H]2CCCN2C(=O)[C@H]2CCCN2C(=O)[C@H]([C@@H](C)CC)NC(=O)[C@H](CCCNC(=N)N)NC1=O` [JB-72] (cyclo(RV[dR]TRKGRRIRI[dP]P)) yielded a Kd greater than 1000 nM.
For `CC[C@H](C)[C@@H]1NC(=O)[C@H](Cc2ccc(O)cc2)NC(=O)[C@H](CCCNC(=N)N)NC(=O)CNC(=O)[C@H](CCCCN)NC(=O)[C@H](CCCNC(=N)N)NC(=O)[C@H]([C@@H](C)O)NC(=O)[C@H](CCCNC(=N)N)NC(=O)[C@H](C(C)C)NC(=O)[C@H](CCCNC(=N)N)NC(=O)[C@@H]2CCCN2C(=O)[C@H]2CCCN2C(=O)[C@H]([C@@H](C)CC)NC(=O)[C@H](CCCNC(=N)N)NC1=O` [JB-73] (cyclo(RVRTRKGRYIRI[dP]P)), the Kd was greater than 1000 nM.
For `CC[C@H](C)[C@@H]1NC(=O)[C@H](Cc2c[nH]c3ccccc23)NC(=O)[C@H](CCCNC(=N)N)NC(=O)CNC(=O)[C@H](CCCCN)NC(=O)[C@H](CCCNC(=N)N)NC(=O)[C@H]([C@@H](C)O)NC(=O)[C@H](CCCNC(=N)N)NC(=O)[C@H](C(C)C)NC(=O)[C@H](CCCNC(=N)N)NC(=O)[C@@H]2CCCN2C(=O)[C@H]2CCCN2C(=O)[C@H]([C@@H](C)CC)NC(=O)[C@H](CCCNC(=N)N)NC1=O` [JB-74] (cyclo(RVRTRKGRWIRI[dP]P)), the Kd was greater than 1000 nM.
For `CC[C@H](C)[C@@H]1NC(=O)[C@H](CCCNC(=N)N)NC(=O)[C@H](CCCNC(=N)N)NC(=O)CNC(=O)[C@H](CCCCN)NC(=O)[C@H](CCCNC(=N)N)NC(=O)[C@H]([C@@H](C)O)NC(=O)[C@H](CCCNC(=N)N)NC(=O)[C@H](C(C)C)NC(=O)[C@H](CCCNC(=N)N)NC(=O)[C@@H]2CCCN2C(=O)[C@H]2CCCN2C(=O)[C@H]([C@@H](C)CC)NC(=O)[C@H](Cc2c[nH]cn2)NC1=O` [JB-77] (cyclo(RVRTRKGRRIHI[dP]P)), the Kd was greater than 1000 nM.
`CC[C@H](C)[C@@H]1NC(=O)[C@H](CCCNC(=N)N)NC(=O)[C@H](CCCNC(=N)N)NC(=O)CNC(=O)[C@H](CCCCN)NC(=O)[C@H](CCCNC(=N)N)NC(=O)[C@H]([C@@H](C)O)NC(=O)[C@H](CCCNC(=N)N)NC(=O)[C@H](C(C)C)NC(=O)[C@H](CCCNC(=N)N)NC(=O)[C@@H]2CCCN2C(=O)[C@H]2CCCN2C(=O)[C@H]([C@@H](C)CC)NC(=O)[C@H](Cc2ccc(O)cc2)NC1=O` [JB-78] (cyclo(RVRTRKGRRIYI[dP]P)) was tested, and the Kd was greater than 1000 nM.
`CC[C@H](C)[C@@H]1NC(=O)[C@H](CCCNC(=N)N)NC(=O)[C@H](CCCNC(=N)N)NC(=O)CNC(=O)[C@H](CCCCN)NC(=O)[C@H](CCCNC(=N)N)NC(=O)[C@H]([C@@H](C)O)NC(=O)[C@H](CCCNC(=N)N)NC(=O)[C@H](C(C)C)NC(=O)[C@H](CCCNC(=N)N)NC(=O)[C@@H]2CCCN2C(=O)[C@H]2CCCN2C(=O)[C@H]([C@@H](C)CC)NC(=O)[C@H](Cc2c[nH]c3ccccc23)NC1=O` [JB-79] (cyclo(RVRTRKGRRIWI[dP]P)) gave a Kd greater than 1000 nM.
For `CC[C@H](C)[C@@H]1NC(=O)[C@H](CCCNC(=N)N)NC(=O)[C@H](CCCNC(=N)N)NC(=O)CNC(=O)[C@H](CCCCN)NC(=O)[C@H](CCCNC(=N)N)NC(=O)[C@H]([C@@H](C)O)NC(=O)[C@H](CCCNC(=N)N)NC(=O)[C@H](C(C)C)NC(=O)[C@H](CCCNC(=N)N)NC(=O)[C@@H]2CCCN2C(=O)[C@H]2CCCN2C(=O)[C@H](C)NC(=O)[C@H](CCCNC(=N)N)NC1=O` [JB-83] (cyclo(RVRTRKGRRIRA[dP]P)), the Kd was greater than 1000 nM.
With `CC[C@H](C)[C@@H]1NC(=O)[C@H](CCCNC(=N)N)NC(=O)[C@H](CCCNC(=N)N)NC(=O)CNC(=O)[C@H](CCCCN)NC(=O)[C@H](CCCNC(=N)N)NC(=O)[C@H]([C@@H](C)O)NC(=O)[C@H](CCCNC(=N)N)NC(=O)[C@H](C(C)C)NC(=O)[C@H](CCCCNC(=N)N)NC(=O)[C@@H]2CCCN2C(=O)[C@H]2CCCN2C(=O)[C@H]([C@@H](C)CC)NC(=O)[C@H](CCCNC(=N)N)NC1=O` [KP-Y-01] (cyclo([hArg]VRTRKGRRIRI[dP]P)) the Kd was 150 nM.
